Laboratory results published in article PMC6151560, “Antibacterial and Antitubercular Activities of Cinnamylideneacetophenones” (Molecules : A Journal of Synthetic Chemistry and Natural …, 2017).
Values after ≈ are worked out from the molar mass of the structure shown. Like-named read-outs stand apart in the source and are kept apart here.

How the values were obtained:
[1] = system: Pseudomonas aeruginosa (ATCC 15442); test: Antibacterial broth microdilution (MIC), P. aeruginosa; conditions: for MIC: ATCC15442, 24 h, read-out: Pa MIC
[2] = system: Streptococcus mutans (ATCC 25175); test: Antibacterial broth microdilution (MIC/MBC), S. mutans; conditions: for MIC: ATCC25175, 24 h; for MBC: ATCC25175, read-out: Sm MBC
[3] = system: Streptococcus sanguinis (ATCC 10557); test: Antibacterial broth microdilution (MIC/MBC), S. sanguinis; conditions: for MIC: ATCC10557, 24 h; for MBC: ATCC10557, read-out: Ss MBC
[4] = Partition coefficient log Po/w by HPLC-PDA (OECD method); conditions: for chromatographic logP: n-octanol/water (from HPLC retention on a C-18 column)
[5] = system: Mycobacterium tuberculosis H37Rv (ATCC 27294); test: Antitubercular REMA (Resazurin Microtiter Assay); format: cell-based; conditions: read-out: Mt MIC
[6] = system: Staphylococcus aureus (ATCC 14458); test: Antibacterial broth microdilution (MIC/MBC), S. aureus; conditions: for MIC: ATCC14458, 24 h; for MBC: ATCC14458, read-out: Sa MBC
[7] = system: Escherichia coli (ATCC 10536); test: Antibacterial broth microdilution (MIC), E. coli; conditions: for MIC: ATCC10536, 24 h, read-out: Ec MIC
[8] = DPPH radical scavenging ability; conditions: at 1600, 800, 400, and 200 µM; DPPH 100 μM, 30 min, 25 °C
Source text: The low selectivity of the cinnamylideneacetophenones 3 and 4 can be correlated with their phenolic nature. Studies report the ability of phenolic compounds to act on widespread radical processes shared by eukaryotic and prokaryotic cells. We hypothesized this behavior may be responsible by simultaneous activity toward bacteria and pulmonary cells. Therefore, we evaluated the radical scavenging ability of 3 and 4 using DPPH (2,2-diphenyl-1-picrylhydrazyl) protocol. […] Altogether, low selectivity of 3 and 4 cannot be strongly related to radical processes. Quercetin and gallic acid were used as positive controls due to their phenolic nature and potent radical scavenging ability.
Radical scavenging activity of compounds 3 and 4 was determined using 2,2-diphenyl-1-picrylhydrazyl (DPPH). Aliquots of 10 µL of 3, 4, and positive controls (quercetin and gallic acid) at concentrations 1600, 800, 400, and 200 μM (in EtOH) were individually added in 190 µL DPPH (100 μM). The mixtures were incubated in the dark at 25 °C for 30 min. Remaining DPPH was determined spectroscopically at 490 nm by blanking against absolute ethanol. Radical scavenging ability was expressed by using mean values obtained from triplicates as the percentage of radicals reduced by calculating the following equation: DPPH scavenging % = [1 − (Asample/A) × 100], where A is test absorbance without sample (only EtOH and DPPH) and Asample is test absorbance with compounds.

[9] = read-out: Sm MIC, Streptococcus mutans, broth microdilution, 24 h, tested 3.9 to 500 µM
[10] = read-out: Ss MIC, Streptococcus sanguinis, broth microdilution, 24 h, tested 3.9 to 500 µM
[11] = M. tuberculosis H37Rv, REMA, 7 days, lowest concentration giving 90% inhibition of growth
[12] = Mycobacterium tuberculosis, 168 h, M. tuberculosis H37Rv, REMA, 7 days, lowest concentration giving 90% inhibition of growth
[13] = read-out: Sa MIC, Staphylococcus aureus, broth microdilution, 24 h, tested 3.9 to 500 µM
[14] = Mycobacterium tuberculosis, 168 h
[15] = broth microdilution, 24 h, tested 3.9 to 500 µM

Compound `[H]/N=C(\N/C(=N/[H])NCCCCCCNC(=N)NC(=N)Nc1ccc(Cl)cc1)Nc1ccc(Cl)cc1` [CHX, chlorhexidine, reference compound] has an MIC [1] of 19.4 µM (≈ 9.81 µg/mL), an MIC [2, 9] of 2.4 µM (≈ 1.21 µg/mL) and an MBC [2] of 4.7 µM (≈ 2.38 µg/mL). It also gave an MIC [3, 10] of 4.7 µM (≈ 2.38 µg/mL) and an MBC [3] of 9.5 µM (≈ 4.8 µg/mL).
`O=C(/C=C/C=C/c1ccccc1)c1ccccc1` [Compound 2, (2E,4E)-1,5-diphenylpenta-2,4-dien-1-one] showed a chromatographic logP [4] of 3.2, an MIC [5, 11] of 57.2 µM (≈ 13.4 µg/mL) and an MIC [5, 12] of 57.2 to 70.9 µM (≈ 13.4 to 16.6 µg/mL). For the same compound, the MIC [1] was > 500 µM, the MIC [2, 9] was > 500 µM and the MIC [6, 13] was > 500 µM. For the same compound, the MIC [7] was > 500 µM and the MIC [3, 10] was > 500 µM.
With `Nc1cccc(C(=O)/C=C/C=C/c2ccccc2)c1` [Compound 5, (2E,4E)-1-(3-aminophenyl)-5-phenylpenta-2,4-dien-1-one] the chromatographic logP [4] was 2.5, the MIC [5, 12] was > 200 µM and the MIC [1] was > 500 µM. The MIC [2, 9] was 313 µM (≈ 78 µg/mL), the MBC [2] was 313 µM (≈ 78 µg/mL) and the MIC [6, 13] was > 500 µM. For the same compound, the MIC [7] was > 500 µM and the MIC [3, 10] was > 500 µM.
For `COc1cccc(C(=O)/C=C/C=C/c2ccccc2)c1` [Compound 6, (2E,4E)-1-(3-methoxyphenyl)-5-phenylpenta-2,4-dien-1-one], the chromatographic logP [4] was 3.3, the MIC [5, 12] was > 200 µM and the MIC [1] was > 500 µM. For the same compound, the MIC [2, 9] was ≥ 296 µM, the MIC [6, 13] was ≥ 296 µM and the MBC [6] was 296 µM (≈ 78.2 µg/mL). The MIC [7] was > 500 µM and the MIC [3, 10] was ≥ 296 µM.
`COc1ccc(C(=O)/C=C/C=C/c2ccccc2)cc1` [Compound 7, (2E,4E)-1-(4-methoxyphenyl)-5-phenylpenta-2,4-dien-1-one] showed a chromatographic logP [4] of 3.2, an MIC [5, 11] of 66.6 µM (≈ 17.6 µg/mL) and an MIC [5, 12] of 57.2 to 70.9 µM (≈ 15.1 to 18.7 µg/mL). The MIC [1] was > 500 µM, the MIC [2, 9] was ≥ 296 µM and the MIC [6, 13] was ≥ 296 µM. The MIC [7] was > 500 µM and the MIC [3, 10] was ≥ 296 µM.
With `COc1cc(C(=O)/C=C/C=C/c2ccccc2)ccc1O` [Compound 9, (2E,4E)-1-(4-hydroxy-3-methoxyphenyl)-5-phenylpenta-2,4-dien-1-one] the chromatographic logP [4] was 2.7, the MIC [5, 12] was 83.5 µM (≈ 23.4 µg/mL) and the MIC [1] was > 500 µM. For the same compound, the MIC [2, 9] was > 500 µM, the MIC [6, 13] was 279 µM (≈ 78.2 µg/mL) and the MBC [6] was 279 µM (≈ 78.2 µg/mL). The MIC [7] was > 500 µM and the MIC [3, 10] was > 500 µM.
`O=C(/C=C/C=C/c1ccccc1)c1ccc(F)cc1` [Compound 10, (2E,4E)-1-(4-fluorophenyl)-5-phenylpenta-2,4-dien-1-one] gave a chromatographic logP [4] of 3.3, an MIC [5, 11] of 67.4 µM (≈ 17 µg/mL) and an MIC [5, 12] of 57.2 to 70.9 µM (≈ 14.4 to 17.9 µg/mL). For the same compound, the MIC [1] was > 500 µM, the MIC [2, 9] was > 500 µM and the MIC [6, 13] was > 500 µM. The MIC [7] was > 500 µM and the MIC [3, 10] was > 500 µM.
In the case of `O=C(/C=C/C=C/c1ccccc1)c1ccc(Cl)cc1` [Compound 11, (2E,4E)-1-(4-chlorophenyl)-5-phenylpenta-2,4-dien-1-one], the MIC [5, 14] is reported as > 200 µM, the MIC [1] is reported as > 500 µM and the MIC ([2]; read-out: Sm MIC) is reported as > 500 µM. For the same compound, the chromatographic logP (physchem) was 3.7, the MIC ([6]; read-out: Sa MIC) was > 500 µM and the MIC [7] was > 500 µM. For the same compound, the MIC ([3]; read-out: Ss MIC) was > 500 µM.
In the case of `O=C(/C=C/C=C/c1ccccc1)c1ccc(Br)cc1` [Compound 12, (2E,4E)-1-(4-bromophenyl)-5-phenylpenta-2,4-dien-1-one], the MIC [5, 14] is reported as > 200 µM, the MIC [1] is reported as > 500 µM and the MIC ([2]; read-out: Sm MIC) is reported as > 500 µM. The chromatographic logP (physchem) was 3.8, the MIC ([6]; read-out: Sa MIC) was > 500 µM and the MIC [7] was > 500 µM. For the same compound, the MIC ([3]; read-out: Ss MIC) was > 500 µM.
For `O=C(/C=C/C=C/c1ccccc1)c1ccc(Cl)c(Cl)c1` [Compound 13, (2E,4E)-1-(3,4-dichlorophenyl)-5-phenylpenta-2,4-dien-1-one], the chromatographic logP [4] was 4.1, the MIC [5, 12] was > 200 µM and the MIC [1] was > 500 µM. The MIC [2, 9] was > 500 µM, the MIC [6, 13] was > 500 µM and the MIC [7] was > 500 µM. The MIC [3, 10] was > 500 µM.
In the case of `O=C(/C=C/C=C/c1ccccc1)c1cccc(C(F)(F)F)c1` [Compound 14, (2E,4E)-1-(3-(trifluoromethyl)phenyl)-5-phenylpenta-2,4-dien-1-one], the chromatographic logP [4] is reported as 3.7, the MIC [5, 12] is reported as > 200 µM and the MIC [1] is reported as > 500 µM. For the same compound, the MIC [2, 9] was > 500 µM, the MIC [6, 13] was > 500 µM and the MIC [7] was > 500 µM. For the same compound, the MIC [3, 10] was > 500 µM.
For `O=C(/C=C/C=C/c1ccccc1)c1cccc([N+](=O)[O-])c1` [Compound 15, (2E,4E)-1-(3-nitrophenyl)-5-phenylpenta-2,4-dien-1-one], the chromatographic logP [4] was 3.3, the MIC [5, 12] was > 200 µM and the MIC [1] was > 500 µM. The MIC [2, 9] was > 500 µM, the MIC [6, 13] was > 500 µM and the MIC [7] was > 500 µM. The MIC [3, 10] was > 500 µM.
For `O=C(/C=C/C=C/c1ccccc1)c1ccc([N+](=O)[O-])cc1` [Compound 16, (2E,4E)-1-(4-nitrophenyl)-5-phenylpenta-2,4-dien-1-one], the chromatographic logP [4] was 3.2, the MIC [5, 12] was > 200 µM and the MIC [1] was > 500 µM. The MIC [2, 9] was > 500 µM, the MIC [6, 13] was > 500 µM and the MIC [7] was > 500 µM. For the same compound, the MIC [3, 10] was > 500 µM.
With `Cc1cccc(C(=O)/C=C/C=C/c2ccccc2)c1` [Compound 17, (2E,4E)-1-(3-methylphenyl)-5-phenylpenta-2,4-dien-1-one] the chromatographic logP [4] was 3.6, the MIC [5, 12] was > 200 µM and the MIC [1] was > 500 µM. For the same compound, the MIC [2, 9] was > 500 µM, the MIC [6, 13] was > 500 µM and the MIC [7] was > 500 µM. The MIC [3, 10] was > 500 µM.
`Cc1ccc(C(=O)/C=C/C=C/c2ccccc2)cc1` [Compound 18, (2E,4E)-1-(4-methylphenyl)-5-phenylpenta-2,4-dien-1-one] showed a chromatographic logP [4] of 3.5, an MIC [5, 11] of 70.9 µM (≈ 17.6 µg/mL) and an MIC [5, 12] of 57.2 to 70.9 µM (≈ 14.2 to 17.6 µg/mL). For the same compound, the MIC [1] was > 500 µM, the MIC [2, 9] was > 500 µM and the MIC [6, 13] was > 500 µM. The MIC [7] was > 500 µM and the MIC [3, 10] was > 500 µM.
`NNC(=O)c1ccncc1` [ISO, isoniazid, reference compound] gave an MIC [5, 12] of 0.3 µM (≈ 0.0411 µg/mL).
For `CC1(C)S[C@@H]2[C@H](NC(=O)Cc3ccccc3)C(=O)N2[C@H]1C(=O)O` [PEN, Penicillin G, reference compound], the MIC [7] was 118 µM (≈ 39.5 µg/mL), the MIC [3, 10] was 0.4 µM (≈ 0.134 µg/mL) and the MBC [3] was 0.4 µM (≈ 0.134 µg/mL).
With `O=c1c(O)c(-c2ccc(O)c(O)c2)oc2cc(O)cc(O)c12` [Quercetin, reference compound] the “percentages of DPPH scavenging ability” value [8] was ≥ 95%.
For `CN[C@H](CC(C)C)C(=O)N[C@H]1C(=O)N[C@@H](CC(N)=O)C(=O)N[C@H]2C(=O)N[C@H]3C(=O)N[C@H](C(=O)N[C@H](C(=O)O)c4cc(O)cc(O)c4-c4cc3ccc4O)[C@H](O)c3ccc(c(Cl)c3)Oc3cc2cc(c3O[C@@H]2O[C@H](CO)[C@@H](O)[C@H](O)[C@H]2O[C@H]2C[C@](C)(N)[C@H](O)[C@H](C)O2)Oc2ccc(cc2Cl)[C@H]1O` [VAN, vancomycin, reference compound], the MIC ([6]; read-out: Sa MIC) was 3.3 µM (≈ 4.78 µg/mL), the MBC [6] was 6.8 µM (≈ 9.86 µg/mL) and the MIC [7] was 53.8 µM (≈ 78 µg/mL). The MIC ([3]; read-out: Ss MIC) was 3.3 µM (≈ 4.78 µg/mL) and the MBC [3] was 3.3 µM (≈ 4.78 µg/mL).
For `O=C(O)c1cc(O)c(O)c(O)c1` [gallic acid, reference compound], the “percentages of DPPH scavenging ability” value [8] was ≥ 95%.
For “(2E,4E)-1-(3,4-methylenedioxy)-5-phenylpenta-2,4-dien-1-one [Compound 8]”, the “log Po/w” value ([4]; n-octanol/water, HPLC-PDA method, MeOH:H2O (3:1)) was 3.2, the “Pa MIC” value ([1]; broth microdilution, 24 h) was >500 µM and the “Sm MIC” value [2, 15] was >500 µM. The “Sa MIC” value [6, 15] was >500 µM, the “Ec MIC” value ([7]; broth microdilution, 24 h) was >500 µM and the “Ss MIC” value [3, 15] was >500 µM.
